Patent publication US20110312934A1, “2-ALKYL-6-CYCLOAMINO-3-(PYRIDIN-4-YL)IMIDAZO[1,2-B]-PYRIDAZINE DERIVATIVES, PREPARATION THEREOF, AND THERAPEUTIC APPLICATION THEREOF” (SANOFI-AVENTIS, priority 2008, published 2011)

Legend:
[1] = target: T1, casein kinase 1 epsilon (CK1 epsilon) (Homo sapiens, UniProt P49674); experiment: Filter-plate assay of ATP-33P, inhibition of phosphorylation of casein by CK1 epsilon; type: biochemical; conditions: ATP-33P filtration, cold ATP 10 μM final, 2 hours at ambient temperature, read-out: CK1 epsilon Cl50
T1 construct: Invitrogen Corporation (alternative)
Protocol: The capacity of the compounds of the invention to inhibit the phosphorylation of casein by casein kinase 1 epsilon and delta may be evaluated according to the procedure described in US 2005/0131012.
Filter-Plate Assay of ATP-^33P for the Screening of CK1 Epsilon Inhibitors:
The effect of the compounds on inhibition of the phosphorylation of casein by the enzyme casein kinase 1 epsilon (CK1 epsilon) is measured, using a casein assay with filtration of ATP-^33P in vitro.
Casein kinase 1 epsilon (0.58 mg/ml) is obtained via fermentation and purification processes performed according to methods that are well known to those skilled in the art, or may also be obtained from Invitrogen Corporation™ (human CK1 epsilon).
The compounds are tested at five different concentrations so as to generate IC50 values, i.e. the concentration at which a compound is capable of inhibiting the enzymatic activity by 50%, or alternatively the percentage of inhibition at a concentration of 10 micromolar.
“U”-bottomed Falcon plates are prepared by placing 5 μl of solutions of the compounds according to the invention at concentrations of 10, 1, 0.1, 0.01 or 0.001 μM in different wells. The solutions of the compounds according to the invention at these various concentrations are prepared by diluting in a test buffer (50 mM Tris, pH 7.5, […], 2 mM DTT and 1 mM EGTA) a stock solution in DMSO at a concentration of 10 mM. Next, 5 μl of dephosphorylated casein are added to a final concentration of 0.2 μg/μl, 20 μl of CK1 epsilon to a final concentration of 3 ng/μl, and 20 μl of ATP-^33P to a final concentration of 0.02 μCi/μl mixed with cold ATP (10 μM final—approximately 2×10^6 CPM per well). The final total test volume per well is equal to 50 μl.
The “U”-bottomed Falcon® test plate mentioned above is vortexed, and then incubated at ambient temperature for 2 hours. After 2 hours, the reaction is stopped by adding an ice-cold solution of 65 μl of ATP (2 mM) prepared in test buffer.
100 μl of the reaction mixture are then transferred from the “U”-bottomed Falcon® plate into Millipore® MAPH filter plates, preimpregnated with 25 μl of ice-cold 100% TCA. […]
The plates are left to dry overnight at ambient temperature. […] The radiation emitted by each well is then measured for 2 minutes in a Packard® Topcount NXT scintillation counter, in which the values of CPM/well are measured.
The percentage inhibition of the capacity of the enzyme to phosphorylate the substrate (casein) is determined for each concentration of compound tested. These inhibition data expressed as percentages are used to calculate the IC50 value for each compound compared with the controls.
The kinetic studies determined the KM value for ATP as being 21 μM in this test system.

T1 sequence (P49674 whole entry): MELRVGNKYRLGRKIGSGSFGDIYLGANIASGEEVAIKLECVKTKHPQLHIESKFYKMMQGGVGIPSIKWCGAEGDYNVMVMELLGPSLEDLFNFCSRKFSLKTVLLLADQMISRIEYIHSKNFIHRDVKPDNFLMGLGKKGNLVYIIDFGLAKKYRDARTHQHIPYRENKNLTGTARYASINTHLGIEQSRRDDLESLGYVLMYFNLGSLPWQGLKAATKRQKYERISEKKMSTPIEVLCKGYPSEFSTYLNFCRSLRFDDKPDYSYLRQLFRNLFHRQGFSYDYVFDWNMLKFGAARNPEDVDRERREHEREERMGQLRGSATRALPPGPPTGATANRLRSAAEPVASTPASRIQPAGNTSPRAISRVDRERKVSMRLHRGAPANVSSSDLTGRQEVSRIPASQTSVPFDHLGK

melting point: 166 to 168 °C
IC50 [1]: 57 nM
Compound: Cc1nc2ccc(N3CCNCC3)nn2c1-c1ccncc1 [Compound 1, 2-Methyl-6-piperazin-1-yl-3-pyridin-4-yl-imidazo[1,2-b]pyridazine]
